We go through one compound from patent US9186321B2 (SUDA LIMITED, priority 2011, dated 2015).

Counter-ions that a name gives are not always drawn.

The nature of the data set: Overall tolerability in the relative bioavailability study. The format is in vivo, human. Conditions: doses of 10 mg, 20 mg, 30 mg and single oral dose of 25 mg (1×25 mg tablet); healthy adult subjects under fed conditions. Here is the method:
Assessments include evaluation of changes in orthostatic hypotension, oral irritation, vital sign assessments, 12-lead electrocardiogram (ECG), and clinical assessments.
After dosing, the following activities were completed: • Both objective and subjective oral irritation assessments were performed immediately after dosing and at one hour after dose administration. • A fast was maintained until at least four hours after dosing. During the study confinement period, fluid consumption resumed no sooner than one hour after dose administration. […] Day 2 • Blood sample collections were obtained as per the profile. • Supine and standing blood pressure and heart rate was measured at approximately 24 hours after each dose. • All subjects were evaluated for the presence of any adverse events prior to release from the study site. • Prior to release, subjects were evaluated to ensure it was safe for them to be released from the study site. • Subjects were released from the study site at approximately 24 hours after dose administration. […]

Take `CCCc1nn(C)c2c(=O)[nH]c(-c3cc(S(=O)(=O)N4CCN(C)CC4)ccc3OCC)nc12` [sildenafil citrate]: the tolerability result is on record as “well tolerated”.
